Measured values reported in patent US7786310B2, “Small molecule transcriptional activation domains” (The Regents of the University of Michigan, priority 2004, dated 2010).

How the values were obtained:
HeLa nuclear extracts = conditions: for ability to up-regulate transcription (activity in words, compared with AD 1): Example 9 numbering (FIG. 13/14A), ATF14 as positive control, FIG. 15
[1] = system: transcription mediated by 4; assay: competition/squelching experiment: free activation domain added to in vitro transcription reactions containing the DNA-bound activator; type: biochemical, human; conditions: 1-10 μM concentration of free activation domain; FIG. 7
Description: In this experiment, micromolar concentrations of free activation domain are added to transcription reactions containing the DNA-bound activator and the corresponding affect on transcription levels is measured. Results with one of the activation domains (4) is shown (See, e.g., FIGS. 7-8).

Compound | ability to up-regulate transcription (activity in words, compared with AD 1) (HeLa nuclear extracts) | suppression of transcription mediated by 4 [1] [%] | transcriptional activation when the activation domain is not covalently linked to methotrexate (not localized to DNA) (HeLa nuclear extracts; isoxazolidine and methotrexate hydrazide 1 added separately in the same reaction, FIG. 6)
2-(4({(6-(Amino-methylcarbaminidoylimino-methyl)-pyrazin-2-ylmethyl)-methylamino}-methyl)-benzoylamino)-4-(2-(2-benzyl-(5RS)-hydroxymethyl-(3RS)-isobutylisoxazolidin-3-yl)-ethylidene-hydrazinocarbonyl)-(S)-butyric acid [isoxazolidine 6] | function well as transcriptional ADs | – | –
2-(4({(6-(Amino-methylcarbaminidoylimino-methyl)-pyrazin-2-ylmethyl)-methylamino}-methyl)-benzoylamino)-4-(2-benzyl-(3RS)-(2-hydroxy-ethyl)-3-isobutylisoxazolidin-(5RS)-ylmethylene-hydrazinocarbonyl)-(S)-butyric acid [isoxazolidine 4] | indistinguishable from that of AD 1 | – | –
CC(C)C[C@]1(C/C=N/NC(=O)CC[C@H](NC(=O)c2ccc(N(C)Cc3cnc4nc(N)nc(N)c4n3)cc2)C(=O)O)C[C@](C)(CO)ON1CC(=O)O (racemic) [isoxazolidine 3, 2-(4({(6-(Amino-methylcarbaminidoylimino-methyl)-pyrazin-2-ylmethyl)-methylamino}-methyl)-benzoylamino)-4-{2-((5RS)-hydroxymethyl-2-(hydroxy-2-oxopropyl)-(3RS)-isobutyl-isoxazolidin-3-yl)-ethylidene-hydrazinocarbonyl}-(S)-butyric acid] | indistinguishable from that of AD 1 | – | –
COC(OC)C1CC(CCO)(CC(C)C)N(Cc2ccccc2)O1 (centres unmarked) [S8, 2-(2-Benzyl-5-dimethoxymethyl-3-isobutyl-isoxazolidin-3-yl)-ethanol] | – | ~50 | Little activation
